Experimental data as given in US20130252930A1 (BIOMARIN PHARMACEUTICAL INC., priority 2010, published 2013).
Read-outs that look alike come from different tables or passages of the source.

Key:
[1] = test system: rat Cyp11B enzyme (rat adrenal mitochondria); experiment: CYP11B enzymatic assay (% inhibition at 100 nM) (Biological Example 9); assay type: biochemical; conditions: for CYP11B enzymatic assay % inhibition at 100 nM (Biological Example No. 9): compound at 100 nM
Method: Adrenals excised from Sprague Dawley rats were homogenized, and mitochondria fraction were prepared by a series of centrifugation as described in Shuji Ohno, et al. J. of Steroid Biochemistry & Molecular Biology 2002, 80, 355-363. Prepared mitochondria protein was washed and resuspended in Buffer B (0.21 M mannitol, 70 mM sucrose, 5 mM MgCl2, 0.5 mM CaCl2, 20 mM Tris-HCl (pH 7.4) and 1 mM DTT, […]). The protein concentration was determined by BCA assay and stored as 10 μL aliquots at −80° C.
The rat Cyp11B enzyme assay was performed in 96-well plates. Typical assays were carried out in total 50 μL volume that included test compounds at 100 nM concentration, 1× Buffer B, 0.5 mM NADPH, 0.1 μM 11-deoxycortisol, and 2 μL of prepared rat adrenal mitochondria (added last). Reaction without test compound served as positive control and reaction without NADPH served as negative control. Reactions were allowed to incubate at 37° C. for 60 min with gentle shaking. The reaction was stopped by directly applying the enzymatic reaction mixture (1:5 diluted in ELISA assay buffer) to ELISA plate for evaluation of cortisol concentration according to manufacturer's protocol (Assay Design).
The mean absorbance value for each sample was used to determine the corresponding concentration from the standard curve. Amount of cortisol in the negative control (reaction that dis not include NADPH) was subtracted from total cortisol. Percent inhibition (inhibition %) of the compound was calculated using normalized cortisol concentration based on following formula: 100−([Cortisol] of compound/[Cortisol] of positive control *100).

[2] = molecular target: T1, CYP17 (human testicular microsome) (Homo sapiens, UniProt P05093); experiment: CYP17 enzymatic assay (% inhibition at 10 nM), version 1 (Biological Example 5); assay type: biochemical
T1 construct: using microsomal fraction from human testis (Celsis Cat #S00110) as the enzyme source; tissue Celsis S00110; host or cells: human testis microsomal fraction
T1 sequence (P05093 1-508): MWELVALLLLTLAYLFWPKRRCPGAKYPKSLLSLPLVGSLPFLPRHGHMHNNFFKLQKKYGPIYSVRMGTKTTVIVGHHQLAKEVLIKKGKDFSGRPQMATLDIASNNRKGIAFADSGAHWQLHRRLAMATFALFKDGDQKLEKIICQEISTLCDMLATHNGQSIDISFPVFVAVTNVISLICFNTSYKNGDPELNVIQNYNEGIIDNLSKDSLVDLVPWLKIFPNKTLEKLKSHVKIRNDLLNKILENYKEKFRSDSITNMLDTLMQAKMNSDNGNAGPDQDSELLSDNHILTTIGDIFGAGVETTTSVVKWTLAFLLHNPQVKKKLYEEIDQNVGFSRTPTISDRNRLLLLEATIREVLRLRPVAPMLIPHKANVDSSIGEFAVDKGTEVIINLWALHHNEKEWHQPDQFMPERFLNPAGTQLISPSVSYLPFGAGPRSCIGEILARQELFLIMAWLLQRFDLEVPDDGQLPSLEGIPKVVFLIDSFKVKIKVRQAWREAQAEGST
Method: The assays were performed in 96-well plates. Typical assays were carried out in total 100 μL volume that included test compounds at 10 nM concentration, 1× reaction buffer, 0.5 mM NADPH, 1 μM 17α-hydroxypregnenolone, and 2.5 μL of diluted human testicular microsome (Celsis. Cat #S00110). Reaction without test compound served as positive control. Reactions were allowed to incubate at 37° C. for 90 minutes with gentle shaking. The reaction was stopped by directly applying the enzymatic reaction mixture to ELISA plate for evaluation of DHEA concentration according to manufacturer's protocol (IBL America). A standard curve (OD450 vs. DHEA concentration) was generated using purified DHEA. […] Percent inhibition (inhibition %) of the compound was calculated using normalized DHEA concentration based on following formula: 100-([DHEA] of compound/[DHEA] of positive control *100).

[3] = Human liver microsome stability assay (Biological Example 8b); conditions: liver microsomes, pH 7.4
Method: The reaction was started with addition of excess NADPH (5 mg/mL, 15 μL in 0.1 M potassium phosphate buffer, 1.0 mM EDTA, pH 7.4), the total volume is 45 μL (compound final concentration was 1 μM). […] 50 μL of the supernatant was transferred from each well into a 96-well sample plate containing 50 μL of ultra-pure water (Millipore) for LC-MS/MS analysis.

[4] = molecular target: T1, CYP17 (human testicular microsome); experiment: CYP17 enzymatic assay (IC50) (Biological Example 4); assay type: biochemical; conditions: human testicular microsome; read-out: CYP17 enzymatic assay IC50 (Biological Example No. 4)
[5] = molecular target: T1, CYP17 (human testicular microsome); experiment: CYP17 enzymatic assay (% inhibition at 1 nM) (Biological Example 12); assay type: biochemical; conditions: compound at 1 nM, read-out: CYP17 enzymatic assay % inhibition at 1 nM (Biological Example No. 12)
[6] = molecular target: T2, Cyp21 enzyme (Human HEK 293-Cyp21 stable transfected cells) (Homo sapiens, UniProt P08686); experiment: CYP21-HEK293 enzymatic assay (IC50) (Biological Example 11); assay type: cell-based; conditions: HEK 293-Cyp21 cells; read-out: CYP21-HEK293 enzymatic assay IC50 (Biological Example No. 11)
T2 construct: expressed in transfected cells
T2 sequence (P08686 1-495): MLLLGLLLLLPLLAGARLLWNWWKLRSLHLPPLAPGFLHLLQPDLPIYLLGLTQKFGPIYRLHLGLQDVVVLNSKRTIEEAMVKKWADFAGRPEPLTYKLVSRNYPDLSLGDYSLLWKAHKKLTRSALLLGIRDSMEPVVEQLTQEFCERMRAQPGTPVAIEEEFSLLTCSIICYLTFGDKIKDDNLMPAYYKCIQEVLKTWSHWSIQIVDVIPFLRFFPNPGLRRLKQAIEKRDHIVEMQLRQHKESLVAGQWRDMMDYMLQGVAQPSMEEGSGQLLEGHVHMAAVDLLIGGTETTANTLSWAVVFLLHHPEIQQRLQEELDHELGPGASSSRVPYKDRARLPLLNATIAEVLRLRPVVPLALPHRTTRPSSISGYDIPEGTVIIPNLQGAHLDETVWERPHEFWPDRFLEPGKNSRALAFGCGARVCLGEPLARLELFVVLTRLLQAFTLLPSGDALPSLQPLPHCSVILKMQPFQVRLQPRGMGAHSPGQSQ

[7] = compound at 10 nM, read-out: CYP17 enzymatic assay % inhibition at 10 nM (Biological Example No. 5)

CC(=O)O[C@H]1CC[C@@]2(C)C(=CC[C@H]3C4=CC=C(c5cccnc5)[C@@]4(C)CC[C@@H]32)C1 [Compound 78, (3S,10R,13S)-10,13-dimethyl-17-(pyridin-3-yl)-2,3,4,7,8,9,10,11,12,13-decahydro-1H-cyclopenta[a]phenanthren-3-yl acetate]
Biological Example No. 9: CYP11B percent inhibition at 100 nM ([1]; 100 nM compound, cortisol by ELISA): U (U means the compound had a percent inhibition of greater than or equal to 32%) | inhibition at 0.01 µM ([2]; 10 nM compound, DHEA by ELISA, read-out: Biological Example No. 5: CYP17 percent inhibition at 10 nM (version 1)): 1 to 50%

CN1C(=O)CCC[C@@]2(C)C1=CCC1C2CC[C@]2(C)C(c3cccnc3)=CCC12 (stereo partly drawn) [Compound 180, (5aR,7aS)-1,5a,7a-trimethyl-8-(pyridin-3-yl)-3,4,5,5a,5b,6,7,7a,10,10a,10b,11-dodecahydrocyclopenta[5,6]naphtho[2,1-b]azepin-2(1H)-one]
half-life at 1 μM [3]: 1 to 50 min | IC50 [4]: < 11 nM | CYP11B enzymatic assay % inhibition at 100 nM (Biological Example No. 9) [1]: U (U means the compound had a percent inhibition of greater than or equal to 32%) | inhibition at 0.01 µM [2, 7]: > 80%

COc1cncc(C2=CCC3C4CC=C5N(C)C(=O)CCC[C@]5(C)C4CC[C@]23C)c1 (stereo partly drawn) [Compound 181, (5aR,7aS)-8-(5-methoxypyridin-3-yl)-1,5a,7a-trimethyl-3,4,5,5a,5b,6,7,7a,10,10a,10b,11-dodecahydrocyclopenta[5,6]naphtho[2,1-b]azepin-2(1H)-one]
half-life at 1 μM [3]: 1 to 50 min | CYP11B enzymatic assay % inhibition at 100 nM (Biological Example No. 9) [1]: U (U means the compound had a percent inhibition of greater than or equal to 32%) | inhibition at 0.01 µM [2, 7]: > 80%

Cc1cncc(C2=CCC3C4CC=C5N(C)C(=O)CCC[C@]5(C)C4CC[C@]23C)c1 (stereo partly drawn) [Compound 182, (5aR,7aS)-1,5a,7a-trimethyl-8-(5-methylpyridin-3-yl)-3,4,5,5a,5b,6,7,7a,10,10a,10b,11-dodecahydrocyclopenta[5,6]naphtho[2,1-b]azepin-2(1H)-one]
CYP11B enzymatic assay % inhibition at 100 nM (Biological Example No. 9) [1]: U (U means the compound had a percent inhibition of greater than or equal to 32%) | inhibition at 0.01 µM [2, 7]: 50 to 80%

CN1C(=O)CC[C@@]2(C)C1=CC[C@@H]1[C@@H]2CC[C@]2(C)C(n3ccnc3)=CC[C@@H]12 [Compound 183, (4aR,6aS)-7-(1H-imidazol-1-yl)-1,4a,6a-trimethyl-4,4a,4b,5,6,6a,9,9a,9b,10-decahydro-1H-indeno[5,4-f]quinolin-2(3H)-one]
CYP11B enzymatic assay % inhibition at 100 nM (Biological Example No. 9) [1]: U (U means the compound had a percent inhibition of greater than or equal to 32%) | inhibition at 0.01 µM [2, 7]: 50 to 80%

CN1C(=O)C[C@@]2(C)C1=CCC1C2CC[C@]2(C)C(c3cccnc3)=CCC12 (stereo partly drawn) [Compound 185, (3aR,5aS)-1,3a,5a-trimethyl-6-(pyridin-3-yl)-3,3a,3b,4,5,5a,8,8a,8b,9-decahydroindeno[5,4-e]indol-2(1H)-one]
IC50 [4]: < 11 nM | inhibition at 0.001 µM [5]: > 50% | CYP11B enzymatic assay % inhibition at 100 nM (Biological Example No. 9) [1]: U (U means the compound had a percent inhibition of greater than or equal to 32%)

COc1cncc(C2=CCC3C4CC=C5N(C)C(=O)C[C@]5(C)C4CC[C@]23C)c1 (stereo partly drawn) [Compound 187, (3aR,5aS)-6-(5-methoxypyridin-3-yl)-1,3a,5a-trimethyl-3,3a,3b,4,5,5a,8,8a,8b,9-decahydroindeno[5,4-e]indol-2(1H)-one]
half-life at 1 μM [3]: 1 to 50 min | IC50 [4]: < 11 nM | inhibition at 0.001 µM [5]: > 50% | CYP11B enzymatic assay % inhibition at 100 nM (Biological Example No. 9) [1]: T (T means the compound had a percent inhibition of less than 32% when tested at 100 nM)

CCCC(=O)N1CCC2CC[C@@H]3[C@H](CC[C@]4(C)C(n5ccnc5)=CC[C@@H]34)[C@@]2(C)CC1 (stereo partly drawn) [Compound 434, 1-((5aS,7aS)-8-(1H-imidazol-1-yl)-5a,7a-dimethyl-1,2,5,5a,5b,6,7,7a,10,10a,10b,11,12,12a-tetradecahydrocyclopenta[5,6]naphtho[1,2-d]azepin-3(4H)-yl)butan-1-one]
IC50 [4]: < 11 nM | inhibition at 0.001 µM [5]: > 50% | CYP11B enzymatic assay % inhibition at 100 nM (Biological Example No. 9) [1]: T (T means the compound had a percent inhibition of less than 32% when tested at 100 nM) | IC50 [6]: > 1000 nM

CCC(=O)N1CCC[C@@]2(C)C(CCC3C2CC[C@]2(C)C(c4cccnc4)=CCC32)C1 (stereo partly drawn) [Compound 435, 1-((5aR,7aS)-5a,7a-dimethyl-8-(pyridin-3-yl)-3,4,5,5a,5b,6,7,7a,10,10a,10b,11,12,12a-tetradecahydrocyclopenta[5,6]naphtho[2,1-c]azepin-2(1H)-yl)propan-1-one]
IC50 [4]: < 11 nM | inhibition at 0.001 µM [5]: 10 to 50% | CYP11B enzymatic assay % inhibition at 100 nM (Biological Example No. 9) [1]: U (U means the compound had a percent inhibition of greater than or equal to 32%) | IC50 [6]: > 1000 nM

CCC(=O)N1CCC2CCC3C(CC[C@]4(C)C(c5cccnc5)=CCC34)[C@@]2(C)CC1 (stereo partly drawn) [Compound 436, 1-((5aS,7aS)-5a,7a-dimethyl-8-(pyridin-3-yl)-1,2,5,5a,5b,6,7,7a,10,10a,10b,11,12,12a-tetradecahydrocyclopenta[5,6]naphtho[1,2-d]azepin-3(4H)-yl)propan-1-one]
IC50 [4]: < 11 nM | inhibition at 0.001 µM [5]: 10 to 50% | CYP11B enzymatic assay % inhibition at 100 nM (Biological Example No. 9) [1]: T (T means the compound had a percent inhibition of less than 32% when tested at 100 nM) | IC50 [6]: > 1000 nM

CCC(=O)N1CCC[C@@]2(C)[C@@H](CC[C@@H]3[C@@H]2CC[C@]2(C)C(n4ccnc4)=CC[C@@H]32)C1 [Compound 441, 1-((5aR,5bS,7aS,10aS,10bR,12aR)-8-(1H-imidazol-1-yl)-5a,7a-dimethyl-3,4,5,5a,5b,6,7,7a,10,10a,10b,11,12,12a-tetradecahydrocyclopenta[5,6]naphtho[2,1-c]azepin-2(1H)-yl)propan-1-one]
IC50 [4]: < 11 nM | inhibition at 0.001 µM [5]: 10 to 50% | CYP11B enzymatic assay % inhibition at 100 nM (Biological Example No. 9) [1]: U (U means the compound had a percent inhibition of greater than or equal to 32%) | IC50 [6]: 10 to 100 nM

COC(=O)N1CCC[C@@]2(C)[C@@H](CC[C@@H]3[C@@H]2CC[C@]2(C)C(n4ccnc4)=CC[C@@H]32)C1 [Compound 442, (5aR,5bS,7aS,10aS,10bR,12aR)-methyl 8-(1H-imidazol-1-yl)-5a,7a-dimethyl-3,4,5,5a,5b,6,7,7a,10,10a,10b,11,12,12a-tetradecahydrocyclopenta[5,6]naphtho[2,1-c]azepine-2(1H)-carboxylate]
inhibition at 0.001 µM [5]: 10 to 50% | CYP11B enzymatic assay % inhibition at 100 nM (Biological Example No. 9) [1]: U (U means the compound had a percent inhibition of greater than or equal to 32%) | IC50 [6]: > 100 nM
